Where two headings read alike, the source gives them in different places.
What was measured:
[1] = tested on: carrageenin edema in rat's paw; assay: Carrageenin Edema Test in Rat's Paw (anti-inflammatory activity); assay type: in vivo, Female Wistar rats; conditions: for inhibition in vivo at 100 mg/kg: Rattus norvegicus, hydrochloric acid salts
Protocol: A standard method of Carrageenin Edema Test in Rat's Paw described in C. A. Winter et al., Proc. Soc. Exp. Biol. Med., 111, 544 (1962) was employed.
[…] One hour later, the pad of a hind paw of the rat was injected with 0.1 ml of 1% aqueous carrageenin solution. The volume of the paw was measured both before the injection of carrageenin and three hours after the injection.
The edema inhibition percentage of the test compound was calculated from the ratio of the increase in the volume of the affected paw of the test animals to the increase in the volume of the affected paw of the controls.
The anti-inflammatory activity of the 3-aminoindazole derivative hydrochloric acid salts of this invention was measured.
The anti-inflammatory activity of the 3-aminoindazole derivative hydrochloric acid salts obtained by Examples 1-49 of this invention was measured by the standard method of carrageenin edema test. In these tests, the amount of the administration of the salts was 100 mg/kg. The results are shown in Table 17 (Inhibition (%) was measured three hours after the injection).

[2] = Acute toxicity (LD50), intravenous injection; conditions: mouse, in vivo, male ddY-strain mice, read-out: LD50, Table 19
Protocol: Acute toxicity was measured by an ordinary method described in Finney DJ Probit Analysis Cambridge University Press 48, (1952). Ddy mice weighing about 18 g on average, each group consisting of 10 animals, were […] injected with the physiological salt solution containing the test compound. The amount of the test compound administered was varied in 5-8 groups. Three days after the administration, dead animals were counted in each group. The amount of the test compound killing half the number of the animals (LD50) was calculated from the results.
The acute toxicity of the 3-aminoindazole derivatives and their hydrochloric acid salts obtained by Examples 1-49 of this invention was measured by giving male ddY-strain mice an intravenous injection.

[3] = po, 3 h, 100 mg/kg, measured three hours after the injection, read-out: Inhibition (carrageenin edema), Table 17
[4] = 100 mg/kg, oral, 3 h after carrageenin, read-out: Inhibition (carrageenin edema), Table 1

| Structure (SMILES) | inhibition in vivo at 100 mg/kg [1, 3] [%] | LD50 at 72 h [2] [mg/kg] | other results |
| --- | --- | --- | --- |
| Nc1nn(CCCCCCN2CCCCC2)c2ccccc12 [Compound (19), 1-(6-piperidinohexyl)-3-aminoindazole] | 29 | 144 | – |
| c1ccc2c(NCCCCCCN3CCCCC3)n[nH]c2c1 [Compound (3), 3-(6-piperidinohexylamino)indazole] | 30 | 143 | – |
| CCN(CC)CCCNc1nn(CCC(C)N2CCCCC2)c2ccccc12 (centres unmarked) [Compound (42), 1-(3-piperidinobutyl)-3-(3-diethylaminopropylamino)indazole] | 29 | 167 | – |
| CN(C)CCNc1nn(-c2ccccc2)c2ccccc12 [Compound C-5, 1-phenyl-3-(2-dimethylaminoethylamino)indazole, reference compound] | – | – | Inhibition (carrageenin edema), Table 2 ([1]; 25 mg/kg, oral): 15%; Inhibition (carrageenin edema), Table 2 ([1]; 50 mg/kg, oral): 18%; Inhibition (carrageenin edema), Table 2 ([1]; 100 mg/kg, oral): 55% |
| CCN(CC)C(C)CCNc1n[nH]c2ccccc12 (centres unmarked) [Compound (16)] | 63 | 184 | – |
| CCN(CC)CCCn1nc(NCCCN2CCCCC2)c2ccccc21 [Compound (34), 1-(3-diethylaminopropyl)-3-(3-piperidinopropylamino)indazole] | 28 | 172 | inhibition in vivo at 100 mg/kg [1, 4]: 28% |
| OC1CCN(CCCNc2n[nH]c3ccccc23)CC1 [Compound (8), 3-{3-(4-hydroxypiperidino)propylamino}indazole] | 47 | 358 | – |
| CC(CCn1nc(NCCCN2CCCCC2)c2ccccc21)N1CCCCC1 (centres unmarked) [Compound (43), 1-(3-piperidinobutyl)-3-(3-piperidinopropylamino)indazole] | 28 | 98 | – |
| CC(C)CC(CCNc1n[nH]c2ccccc12)N1CCCCC1 (centres unmarked) [Compound (15), 3-(5-methyl-3-piperidinohexylamino)indazole] | 42 | 144 | – |
| CCN(CC)CCCn1nc(NCCC(C)N2CCCCC2)c2ccccc21 (centres unmarked) [Compound (37), 1-(3-diethylaminopropyl)-3-(3-piperidinobutylamino)indazole] | 27 | 169 | – |
| CCN(CC)CCCn1nc(N)c2ccccc21 [Compound (26), 1-(3-diethylaminopropyl)-3-aminoindazole] | 61 | 243 | – |
| c1ccc2c(NCCN3CCCCC3)n[nH]c2c1 [Compound (1), 3-(2-piperidinoethylamino)indazole] | 48 | 146 | – |
| Nc1nn(CCCN2CCCCCC2)c2ccccc12 [Compound (21), 1-(3-homopiperidinopropyl)-3-aminoindazole] | 58 | 184 | – |
| CCCNc1n[nH]c2ccccc12 [Compound C-1, 3-(propylamino)indazole, reference compound] | – | – | inhibition in vivo at 100 mg/kg [1, 4]: 7% |
| CCCCN(CCCC)CCCn1nc(N)c2ccccc21 [Compound (27), 1-(3-di-n-butylaminopropyl)-3-aminoindazole] | 57 | 124 | – |
| CC(CCn1nc(NCCCN2CCCCC2)c2ccccc21)N(C)C (centres unmarked) [Compound (47), 1-(3-dimethylaminobutyl)-3-(3-piperidinopropylamino)indazole] | 28 | 212 | – |
| CC(C)CC(CCNc1nn(CCC(C)N2CCCCC2)c2ccccc12)N1CCCCC1 (centres unmarked) [Compound (44), 1-(3-piperidinobutyl)-3-(5-methyl-3-piperidinohexylamino)indazole] | 21 | 123 | – |
| CC1CCCC(C)N1CCCn1nc(N)c2ccccc21 (centres unmarked) [Compound (23), 1-{3-(2,6-dimethylpiperidino)propyl}-3-aminoindazole] | 34 | 152 | – |
| CCN(CC)CCCNc1nn(CCCN2CCCCC2)c2ccccc12 [Compound (38), 1-(3-piperidinopropyl)-3-(3-diethylaminopropylamino)indazole] | 29 | 168 | inhibition in vivo at 100 mg/kg [1, 4]: 29% |
| CC(CCn1nc(N)c2ccccc21)N1CCCCC1 (centres unmarked) [Compound (29), 1-(3-piperidinobutyl)-3-aminoindazole] | 46 | 104 | – |
| CCN(CC)CCCNc1nn(CCC(C)N(C)C)c2ccccc12 (centres unmarked) [Compound (46), 1-(3-dimethylaminobutyl)-3-(3-diethylaminopropylamino)indazole] | 29 | 272 | – |

| Structure (SMILES) | inhibition in vivo at 100 mg/kg [1, 3] [%] | LD50 at 72 h [2] [mg/kg] | other results |
| --- | --- | --- | --- |
| CC(C)CC(CCn1nc(N)c2ccccc21)N1CCCCC1 (centres unmarked) [Compound (30), 1-(5-methyl-3-piperidinohexyl)-3-aminoindazole] | 35 | 153 | – |
| Nc1nn(CCCN2CCCC2)c2ccccc12 [Compound (20), 1-(3-pyrrolidinopropyl)-3-aminoindazole] | 29 | 98 | – |
| CN(C)CCNc1n[nH]c2ccccc12 [Compound (12), 3-(2-dimethylaminoethylamino)indazole] | 52 | 334 | – |
| CCCn1nc(N)c2ccccc21 [Compound C-2, 1-propyl-3-aminoindazole, reference compound] | – | – | inhibition in vivo at 100 mg/kg [1, 4]: 7% |
| CN1CCN(CCCn2nc(N)c3ccccc32)CC1 [Compound (32), 1-{3-(4-methylpiperazino)propyl}-3-aminoindazole] | 27 | 368 | – |
| CCCCN(CCCC)CCCNc1n[nH]c2ccccc12 [Compound (11), 3-(3-di-n-butylaminopropylamino)indazole] | 65 | 115 | – |
| c1ccc2c(NCCCN3CCCCCC3)n[nH]c2c1 [Compound (5), 3-(3-homopiperidinopropylamino)indazole] | 59 | 175 | – |
| c1ccc2c(c1)c(NCCCCCCN1CCCCC1)nn2CCCN1CCCCC1 [Compound (40)] | 21 | 122 | – |
| Nc1nn(CCN2CCCCC2)c2ccccc12 [Compound (17), 1-(2-piperidinoethyl)-3-aminoindazole] | 47 | 143 | – |
| CCN(CC)CCCn1nc(NCCCCCCN2CCCCC2)c2ccccc21 [Compound (35)] | 21 | 193 | – |
| CC(CCNc1nn(CCC(C)N2CCCCC2)c2ccccc12)N(C)C (centres unmarked) [Compound (45)] | 21 | 124 | – |
| CCN(CC)C(CCNc1nn(CCC(C)N(C)C)c2ccccc12)CC(C)C (centres unmarked) [Compound (49), 1-(3-dimethylaminobutyl)-3-(3-diethylamino-5-methylhexylamino)indazole] | 21 | 247 | – |
| Nc1nn(CCCN2CCC(Cl)CC2)c2ccccc12 [Compound (25), 1-{3-(4-chloropiperidino)propyl}-3-aminoindazole] | 59 | 356 | – |
| CC(C)CC(CCn1nc(N)c2ccccc21)N(C)C (centres unmarked) [Compound (31), 1-(3-dimethylamino-5-methylhexyl)-3-aminoindazole] | 28 | 154 | – |
| c1ccc2c(c1)c(NCCCN1CCCCC1)nn2CCCN1CCCCC1 [Compound (39), 1-(3-piperidinopropyl)-3-(3-piperidinopropylamino)indazole] | 28 | 102 | inhibition in vivo at 100 mg/kg [1, 4]: 28% |
| CN1CCN(CCCNc2n[nH]c3ccccc23)CC1 [Compound (13), 3-{3-(4-methylpiperazino)propylamino}indazole] | 30 | 359 | inhibition in vivo at 100 mg/kg [1, 4]: 30%; Inhibition values compared with comparative compounds ([1]; Table 1, 100 mg/kg): higher than that of the compound C-1 |
| CCN(CC)CCCNc1nn(CCCN(CC)CC)c2ccccc12 [Compound (33), 1-(3-diethylaminopropyl)-3-(3-diethylaminopropylamino)indazole] | 29 | 238 | inhibition in vivo at 100 mg/kg [1, 4]: 29% |
| ClC1CCN(CCCNc2n[nH]c3ccccc23)CC1 [Compound (9), 3-{3-(4-chloropiperidino)propylamino}indazole] | 68 | 347 | – |
| CCCCN(CCCC)CCCNc1nn(CCCN(CC)CC)c2ccccc12 [Compound (36), 1-(3-diethylaminopropyl)-3-(3-di-n-butylaminopropylamino)indazole] | 31 | 179 | – |
| Nc1nn(CCc2ccccc2)c2ccccc12 [Compound C-3, 1-(2-phenylethyl)-3-aminoindazole, reference compound] | – | – | inhibition in vivo at 100 mg/kg [1, 4]: 7% |
